The results in this text go back to patent publication US20150133492A1, “N-desmethyldauricine, A Novel Autophagic Enhancer for Treatment of Cancers and Neurodegenerative Conditions Thereof” (Macau University of Science and Technology, priority 2013, published 2015).

For one assay, the system named is HeLa cells. Put plainly: Calcium detection by flow cytometry (Fluo-3). In kind it is cell-based, human. The following applies: 5 μM/10 μM, 1 h, 2 h, 4 h. How it is done:
Changes in intracellular free calcium were measured by a fluorescent dye, Fluo-3, as described previously^18. Briefly, HeLa cells were washed twice with MEM medium after N-desmethyldauricine (LP-4) treatment (5 μM/10 μM) for various times (1 h, 2 h, 4 h). Then cell suspensions were incubated with 5 μM Fluo-3 at 37° C. for 30 min. Then the cells were washed twice with HBSS. After re-suspended cell samples were subjected to FACS analysis, at least 10,000 events were analyzed.

The subject of the next assay is HeLa cancer cells. Put plainly: Transmission electron microscopy of autophagosomes/autolysosomes. Type of assay: cell-based, human. The note with it: treated HeLa cancer cells. An excerpt:
N-desmethyldauricine treated HeLa cells were fixed overnight with 2.5% glutaraldehyde followed by a buffer wash. Samples were post-fixed in 1% OsO4 and embedded in Araldite 502. Ultrathin sections were double stained with uranyl acetate and lead citrate, and analyzed by Philips CM 100 transmission electron microscope at a voltage of 80 kV.

With `COc1cc2c(cc1OC)[C@@H](Cc1ccc(Oc3cc(C[C@H]4NCCc5cc(OC)c(OC)cc54)ccc3O)cc1)N(C)CC2` [N-desmethyldauricine], in the assay with HeLa cells, the cytosolic calcium level entry is given as “increase”. In addition, the “autophagosomes/autolysosomes by electron microscopy” value in the assay on HeLa cancer cells is “found”.
